One assay deals with primary chicken neurons. Briefly: Inhibition of Abeta 1-42 toxicity on primary chicken neurons (MTT). It counts as cell-based. Set-up: key: No: no effect; +: minor positive effect on cell viability in the presence of aggregated Aβ 1-42; ++: medium positive effect on cell viability in the presence of aggregated Aβ 1-42; +++: strong positive effect on cell viability in the presence of aggregated Aβ 1-42. The following applies: 10 μM Aβ1-42 aggregated together with compound for 48 h. The protocol: One-day-old fertilized eggs are stored under appropriate conditions until start of breeding. On embryonic day 0 eggs are transferred to the breeding incubator and under turning, kept at 37.8° C. and 55% humidity until embryonic day eight. Neurons are prepared as follows: In short, embryos are transferred to a plastic dish, and decapitated. Both brain hemispheres are removed, collected and any loose tissue removed. Hemispheres are mechanically dissociated and 4.8×10^4 cells per well (96-well plates) are seeded in a volume of 160 μl.
Aβ1-42 (MW 4514.1) was obtained from American Peptide Company as a lyophilized powder. A stock solution of 340 μM Aβ1-42 was prepared in 50 mM Tris-Buffer, 150 mM NaCl, pH7.6 according to the manufacturer's instructions. After sonication, the stock solution is diluted 1:1 with the test compounds to obtain a concentration of 170, 17 and 1.7 μM. After aggregation at 4° C. for 48 h, the solutions are sonicated again prior to application to the cells. The final concentration of Aβ1-42 applied to the primary chicken neurons is 10 μM.
Aβ1-42 aggregated together with compound for 48 hrs was applied to chicken neurons at DIV4 (days in vitro) and analyzed at DIV10 (144 hrs) and all others were applied to chicken neurons at DIV6 and analysed at DIV10 (96 hrs).
Viability of cultures is determined by the MTT assay. The MTT assay allows for the measurement of the mitochondrial dehydrogenase activity which reduces yellow MTT to dark blue formazan crystals. Since this reaction is catalyzed in living cells only this assay is used for the determination of cell viability. MTT solution is added to each well in a final concentration of 0.5 mg/ml. After 2 hours the MTT containing medium is aspired. Cells are lysed in 3% SDS and the formazan crystals are dissolved in isopropanol/HCl. Optical density is measured with a plate-reader at wavelength 570 nm. Cell survival rate is expressed as a percentage of optical density (OD) relative to control cells not treated with Aβ or compound.

Another assay concerns the target T1, biotinylated Aβ1-42 (Homo sapiens, UniProt P05067).
T1 construct: To assure monomerisation of biotinylated Aβ1-42 (Anaspec #23523-0.5) the peptide was thoroughly monomerised; purchased Anaspec 23523-0.5
Briefly: Inhibition of Abeta oligomerisation (biotinylated Aβ1-42, neutravidin plate, streptavidin-HRP). It counts as biochemical. The following applies: inhibition of Aβ1-42 aggregation, approximately 12 nM Aβ1-42, PBS pH 7.4, 2% DMSO, 30 min RT.

Values joined by “and” are separate entries in the source; they are usually repeats but may differ in a detail not shown here. Equal entries are not always repeated.

T1 sequence (P05067 672-713 limits assumed): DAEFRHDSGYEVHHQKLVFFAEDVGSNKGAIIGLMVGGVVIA

For the molecule `O=C(O)Cc1ccccc1-c1cc(CC(=O)O)c(-c2ccc(-c3sc(-c4ccccc4CC(=O)O)cc3CC(=O)O)s2)s1` [Example 47, 2-(2-{5-[3-(Carboxymethyl)-5-[2-(carboxymethyl)phenyl]thiophen-2-yl]thiophen-2-yl}-5-[2-(carboxymethyl)phenyl]thiophen-3-yl)acetic acid], the “Rescue of Abeta toxicity (MTT)” value with primary chicken neurons (Conc. 0.1 μM), in the assay on primary chicken neurons (Conc. 1 μM) and in the assay on primary chicken neurons (Conc. 10 μM) was “+++” each time.

For `O=C(O)Cc1cc(C(=O)c2ccccc2)sc1-c1ccc(-c2sc(C(=O)c3ccccc3)cc2CC(=O)O)s1` [Example 95, 2-(5-benzoyl-2-{5-[5-benzoyl-3-(carboxymethyl)thiophen-2-yl]thiophen-2-yl}thiophen-3-yl)acetic acid], the “Rescue of Abeta toxicity (MTT)” value with primary chicken neurons (Conc. 0.1 μM) is on record as “no”; in the assay with primary chicken neurons (Conc. 1 μM), “no”; with primary chicken neurons (Conc. 10 μM), “+++”.

For `O=C(O)Cc1cc(-c2cccs2)sc1-c1ccc(-c2sc(-c3ccc(C(=O)O)s3)cc2CC(=O)O)s1` [Example 12, 5-[4-(Carboxymethyl)-5-{5-[3-(carboxymethyl)-5-(thiophen-2-yl)thiophen-2-yl]thiophen-2-yl}thiophen-2-yl]thiophene-2-carboxylic acid], on biotinylated Aβ1-42, the 50% inhibitory concentration (IC50) (as a rule, the concentration that gives 50% inhibition) is 1.58 µM.

Molecule `O=C(O)Cc1ccsc1-c1ccc(-c2sc(-c3ccc(-c4cc(CC(=O)O)c(-c5ccc(-c6sccc6CC(=O)O)cc5)s4)s3)cc2CC(=O)O)cc1` [Example 40, 2-(5-{5-[4-(Carboxymethyl)-5-{4-[3-(carboxymethyl)thiophen-2-yl]phenyl}thiophen-2-yl]thiophen-2-yl}-2-{4-[3-(carboxymethyl)thiophen-2-yl]phenyl}thiophen-3-yl)acetic acid] showed an IC50 on biotinylated Aβ1-42 of 1.26 µM.

With `O=C(O)Cc1cc(-c2ccc(-c3ccc(C(=O)O)cc3)s2)sc1-c1ccc(-c2sc(-c3ccc(-c4ccc(C(=O)O)cc4)s3)cc2CC(=O)O)s1` [Example 19, 4-{5-[4-(Carboxymethyl)-5-{5-[3-(carboxymethyl)-5-[5-(4-carboxyphenyl)thiophen-2-yl]thiothiophen-2-yl]thiophen-2-yl}thiophen-2-yl]thiophen-2-yl}benzoic acid], the IC50 against biotinylated Aβ1-42 was 3.98 µM.

On to `O=C(O)/C=C/c1ccc(-c2cc(CC(=O)O)c(-c3ccc(-c4sc(-c5ccc(/C=C/C(=O)O)s5)cc4CC(=O)O)s3)s2)s1` [Example 64], for which the half-inhibitory concentration (IC50) against biotinylated Aβ1-42 was 2.51 µM.

`O=C(O)Cc1ccsc1-c1ccc(-c2sc(-c3cccc(-c4cc(CC(=O)O)c(-c5ccc(-c6sccc6CC(=O)O)s5)s4)c3)cc2CC(=O)O)s1` [Example 34, 2-(2-{5-[3-(Carboxymethyl)-5-{3-[4-(carboxymethyl)-5-{5-[3-(carboxymethyl)thiophen-2-yl]thiophen-2-yl}thiophen-2-yl]phenyl}thiophen-2-yl]thiophen-2-yl}thiophen-3-yl)acetic acid] had an IC50 on biotinylated Aβ1-42 of 0.794 µM.

In turn, `N#Cc1cccc(-c2cc(CC(=O)O)c(-c3ccc(-c4sc(-c5cccc(C#N)c5)cc4CC(=O)O)s3)s2)c1` [Example 83, 2-(2-{5-[3-(Carboxymethyl)-5-(3-cyanophenyl)thiophen-2-yl]thiophen-2-yl}-5-(3-cyanophenyl)thiophen-3-yl)acetic acid] gave an IC50 against biotinylated Aβ1-42 of 12.6 µM.

`O=C(O)Cc1cc(-c2ccc(-c3ccccc3C(=O)O)s2)sc1-c1ccc(-c2sc(-c3ccc(-c4ccccc4C(=O)O)s3)cc2CC(=O)O)s1` [Example 43, 2-{5-[4-(Carboxymethyl)-5-{5-[3-(carboxymethyl)-5-[5-(2-carboxyphenyl)thiophen-2-yl]thiophen-2-yl]thiophen-2-yl}thiophen-2-yl]thiophen-2-yl}benzoic acid] had an IC50 at biotinylated Aβ1-42 of 3.98 µM.

With `Cc1ccc(-c2ccc(-c3cc(CC(=O)O)c(-c4ccc(-c5sc(-c6ccc(-c7ccc(C)cc7C(=O)O)s6)cc5CC(=O)O)s4)s3)s2)c(C(=O)O)c1` [Example 63, 2-{5-[5-(5-{5-[5-(2-Carboxy-4-methylphenyl)thiophen-2-yl]-3-(carboxymethyl)thiophen-2-yl}thiophen-2-yl)-4-(carboxymethy)thiophen-2-yl]thiophen-2-yl}-5-methylbenzoic acid], inhibition against biotinylated Aβ1-42 was half-maximal at 1 µM (IC50).

On to `CS(=O)(=O)c1ccc(-c2cc(CCC(=O)O)c(-c3ccc(-c4sc(-c5ccc(S(C)(=O)=O)cc5)cc4CCC(=O)O)s3)s2)cc1` [Example 51, 3-(2-{5-[3-(2-Carboxyethyl)-5-(4-methanesulfonylphenyl)thiophen-2-yl]thiophen-2-yl}-5-(4-methanesulfonylphenyl)thiophen-3-yl)propanoic acid], for which, at biotinylated Aβ1-42, the IC50 was 1.58 µM and 7.94 µM.

In the case of `O=C(O)Cc1cc(C(=O)c2cccs2)sc1-c1ccc(-c2sc(C(=O)c3cccs3)cc2CC(=O)O)s1` [Example 93, 2-(2-{5-[3-(carboxymethyl)-5-(thiophene-2-carbonyl)thiophen-2-yl]thiophen-2-yl}-5-(thiophene-2-carbonyl)thiophen-3-yl)acetic acid], the figures for the “Rescue of Abeta toxicity (MTT)” value with primary chicken neurons (Conc. 0.1 μM), in the assay with primary chicken neurons (Conc. 1 μM) and with primary chicken neurons (Conc. 10 μM) were “+”, “++” and “+++”, respectively.

Regarding `NCCc1ccsc1-c1ccc(-c2sc(-c3ccc(-c4cc(CCN)c(-c5ccc(-c6sccc6CCN)s5)s4)s3)cc2CCN)s1` [Example 42, 2-(2-{5-[3-(2-Aminoethyl)-5-{5-[4-(2-aminoethyl)-5-{5-[3-(2-aminoethyl)thiophen-2-yl]thiophen-2-yl}thiophen-2-yl]thiophen-2-yl}thiophen-2-yl]thiophen-2-yl}thiophen-3-yl)ethan-1-amine], at biotinylated Aβ1-42, the IC50 is 0.251 µM.

Take `CS(=O)(=O)c1ccc(-c2sc(-c3ccc(-c4cc(CC(=O)O)c(-c5ccc(S(C)(=O)=O)cc5)s4)cc3)cc2CC(=O)O)cc1` [Example 37, 2-(5-{4-[4-(Carboxymethyl)-5-(4-methanesulfonylphenyl)thiophen-2-yl]phenyl}-2-(4-methanesulfonylphenyl)thiophen-3-yl)acetic acid]: on biotinylated Aβ1-42, half-maximal inhibition (IC50) was put at 5.01 µM.

As to `C#Cc1cc(CC(=O)O)c(-c2ccc(-c3sc(C#C)cc3CC(=O)O)s2)s1` [Example 86, 2-(2-{5-[3-(Carboxymethyl)-5-ethynylthiophen-2-yl]thiophen-2-yl}-5-ethynylthiophen-3-yl)acetic acid], inhibition on biotinylated Aβ1-42 was half-maximal at 20 µM (IC50).

Regarding `O=C(O)Cc1cc(-c2cc(CC(=O)O)c(-c3ccc(-c4cccc(C(=O)O)c4)s3)s2)sc1-c1ccc(-c2cccc(C(=O)O)c2)s1` [Example 66, 3-{5-[3-(Carboxymethyl)-5-[4-(carboxymethyl)-5-[5-(3-carboxyphenyl)thiophen-2-yl]thiophen-2-yl]thiophen-2-yl]thiophen-2-yl}benzoic acid], the IC50 on biotinylated Aβ1-42 is 5.01 µM.

`N#Cc1ccc(-c2cc(CC(=O)O)c(-c3ccc(-c4sc(-c5ccc(C#N)s5)cc4CC(=O)O)s3)s2)s1` [Example 85, 2-(2-{5-[3-(Carboxymethyl)-5-(5-cyanothiophen-2-yl)thiophen-2-yl]thiophen-2-yl}-5-(5-cyanothiophen-2-yl)thiophen-3-yl)acetic acid]: the IC50 against biotinylated Aβ1-42 was 3.98 µM.

Molecule `COC(=O)Cc1cc(-c2ccc(C(=O)O)s2)sc1-c1ccc(-c2sc(-c3ccc(C(=O)O)s3)cc2CC(=O)OC)s1` [Example 69, 5-(5-{5-[5-(5-Carboxythiophen-2-yl)-3-(2-methoxy-2-oxoethyl)thiophen-2-yl]thiophen-2-yl}-4-(2-methoxy-2-oxoethyl)thiophen-2-yl)thiophene-2-carboxylic acid] gave an IC50 against biotinylated Aβ1-42 of 2.51 µM.

As to `CNS(=O)(=O)c1ccc(-c2cc(CC(=O)O)c(-c3ccc(-c4sc(-c5ccc(S(=O)(=O)NC)cc5)cc4CC(=O)O)s3)s2)cc1` [Example 23, 2-(2-{5-[3-(Carboxymethyl)-5-[4-(methylsulfamoyl)phenyl]thiophen-2-yl]thiophen-2-yl}-5-[4-(methylsulfamoyl)phenyl]thiophen-3-yl)acetic acid], the midpoint of inhibition at biotinylated Aβ1-42, the IC50, lay at 3.16 µM.

In turn, `CS(=O)(=O)c1ccc(-c2cc(CCN)c(-c3ccc(-c4sc(-c5ccc(S(C)(=O)=O)cc5)cc4CCN)s3)s2)cc1` [Example 41, 2-(2-{5-[3-(2-Aminoethyl)-5-(4-methanesulfonylphenyl)thiophen-2-yl]thiophen-2-yl}-5-(4-methanesulfonylphenyl)thiophen-3-yl)ethan-1-amine] gave an IC50 against biotinylated Aβ1-42 of 0.794 µM.

`O=C(O)CCc1cc(-c2ccc(C(=O)O)s2)sc1-c1ccc(-c2sc(-c3ccc(C(=O)O)s3)cc2CCC(=O)O)s1` [Example 53, 5-[4-(2-Carboxethyl)-5-{5-[3-(2-carboxyethyl)-5-(5-carboxythiophen-2-yl)thiophen-2-yl]thiophen-2-yl}thiophen-2-yl]thiophene-2-carboxylic acid] had an IC50 against biotinylated Aβ1-42 of 3.98 µM.

These data come from patent US9359311B2, “Substituted aromatic oligomers” (NEUROSCIOS GMBH, priority 2011, dated 2016).
